# Experimental data reported in ChEMBL document CHEMBL5532671, “Leucosceptrane Sesterterpenoids as a New Type of Natural Immunosuppressive Agents in Treating Sepsis” (J Med Chem, 2024).
# Test system: T-cell
# Assay: Immunosuppressive activity in C57BL/6 female mouse T-cells isolated from spleen assessed as inhibition of LPS-induced IFN-gamma secretion at 20 uM treated for 48 hrs by ELISA based assay relative to control
# Type: functional
# Conditions: not given
row,Molecule,inhibition [%]
1,Norleucosceptroid K,33.6

# Same assay, conditions: C57BL/6, T-cell
row,Molecule,inhibition at 20 µM [%]
1,CC(C)=CC1O[C@@]2(C)CC[C@]3(OC(=O)C=C3C)O[C@]13[C@H]2C(=O)[C@@]1(O)[C@@H](C)CC[C@H]1[C@@H]3C (some centres not stated),40.9
2,CC(C)=CC(=O)[C@@]1(O)[C@@H](C)[C@@H]2CC[C@H](C)[C@H]2C(=O)[C@@]12OC(=O)C[C@@H]2C,39.6
3,CC(C)=C[C@H]1O[C@@](C)(CC[C@@H]2OC(=O)C=C2C)C2=C1[C@@H](C)[C@@H]1CC[C@H](C)[C@@H]1C2=O,31.3
4,CC(C)=C[C@H]1O[C@@](C)(C/C=C2\NC(=O)C=C2C)[C@@H]2C(=O)[C@H]3[C@@H](CC[C@@H]3C)[C@H](C)[C@@]21O,16.9
5,CC(C)=C[C@H]1O[C@@]2(C)C[C@H](c3occc3C)O[C@]13[C@H]2C(=O)[C@H]1[C@@H](CC[C@@H]1C)[C@@H]3C,49.7
6,CC(C)=C[C@H]1O[C@@](C)(CC[C@@]2(O)OC(=O)C=C2C)[C@@H]2C(=O)[C@@H]3[C@@H](CC[C@@H]3C)[C@H](C)[C@@]21O,47.5
7,CC(C)=CC(=O)[C@@]1(O)[C@@H](C)[C@@H]2CC[C@H](C)[C@H]2C(=O)[C@]1(O)[C@@H](C)CCc1occc1C,41.6
8,CC(C)=C[C@H]1O[C@@](C)(CC[C@@]2(O)OC(=O)C=C2C)C2=C1[C@@H](C)[C@@H]1CC[C@H](C)[C@@]1(O)C2=O,36.8
9,CC(C)=C[C@H]1O[C@@]2(C)C[C@H]([C@H]3NC(=O)C=C3C)O[C@]13[C@H]2C(=O)[C@H]1[C@@H](CC[C@@H]1C)[C@@H]3C,43.1
10,CC(C)=C[C@H]1O[C@@](C)(CCO)C2=C1[C@@H](C)[C@@H]1CC[C@H](C)[C@]1(O)C2=O,39.6
11,CC(C)=C[C@H]1O[C@@](C)(CC[C@@H]2OC(=O)C=C2C)C2=C1[C@@H](C)[C@@H]1CC[C@H](C)[C@]1(O)C2=O,18.7
12,CC(C)=CC(=O)[C@@]1(O)[C@@H](C)[C@@H]2CC[C@H](C)[C@H]2C(=O)[C@@]12O[C@@H](c1occc1C)C[C@@H]2C,34.6
13,CC(C)=C[C@H]1O[C@@](C)(CCC(=O)O)C2=C1[C@@H](C)[C@@H]1CC[C@H](C)[C@]1(O)C2=O,37.9
14,CC(C)=CC(=O)[C@]12O[C@]3(CC[C@H](C)[C@@]1(O)C(=O)[C@H]1[C@@H](CC[C@@H]1C)[C@@H]2C)OC(=O)C=C3C,43.3
15,CC(C)=C[C@H]1O[C@@](C)(C/C=C2\OC(=O)C=C2C)[C@@H]2C(=O)[C@]3(O)[C@@H](C)CC[C@H]3[C@H](C)[C@@]21O,45.4
16,CC(C)=C[C@H]1O[C@@](C)(C/C=C2/OC(=O)C=C2C)C2=C1[C@@H](C)[C@@H]1CC[C@H](C)[C@@]1(O)C2=O,32.5
17,CC(C)=CC(=O)[C@]12O[C@@H]([C@]3(O)OC(=O)C=C3C)C[C@H](C)[C@@]1(O)C(=O)[C@H]1[C@@H](CC[C@@H]1C)[C@@H]2C,36.9
18,CC(C)=CC(=O)[C@@]1(O)[C@@H](C)[C@@H]2CC[C@H](C)[C@H]2C(=O)[C@]1(O)[C@@H](C)CC[C@]1(O)OC(=O)C=C1C,48.6
19,CC(C)=CC(=O)[C@@]1(O)[C@@H](C)[C@@H]2CC[C@H](C)[C@H]2C(=O)[C@]1(O)[C@@H](C)CC[C@@H]1OC(=O)C=C1C,32.1
20,CC(C)=C[C@H]1O[C@@]2(C)C[C@H]([C@]3(O)OC(=O)C=C3C)O[C@]13[C@H]2C(=O)[C@@]1(O)[C@@H](C)CC[C@H]1[C@@H]3C,43.6
21,CC(C)=C[C@H]1O[C@@](C)(CC[C@@H]2OC(=O)C=C2C)[C@@H]2C(=O)[C@@]3(O)[C@@H](C)CC[C@H]3[C@H](C)[C@@]21O,39.1
22,CC(C)=C[C@H]1O[C@@](C)(CCc2occc2C)[C@@H]2C(=O)[C@@]3(O)[C@@H](C)CC[C@H]3[C@H](C)[C@@]21O,40.4
23,CC(C)=C[C@H]1O[C@@](C)(CCC(=O)O)C2=C1[C@@H](C)[C@@H]1CC[C@H](C)[C@H]1C2=O,45.9
24,CC(C)=C[C@H]1O[C@@](C)(CC(=O)O)C2=C1[C@@H](C)[C@@H]1CC[C@H](C)[C@H]1C2=O,39.9
25,CC(C)=C[C@H]1O[C@@](C)(CC[C@@]2(O)OC(=O)C=C2C)C2=C1[C@@H](C)[C@@H]1CC[C@H](C)[C@]1(O)C2=O,22.4
26,CC(C)=C[C@H]1O[C@@](C)(CC[C@@H]2OC(=O)C=C2C)[C@@H]2C(=O)[C@@H]3[C@@H](CC[C@@H]3C)[C@H](C)[C@@]21O,37.1
27,CC(C)=C[C@H]1O[C@@](C)(C/C=C2\NC(=O)C=C2C)[C@@H]2C(=O)[C@@]3(O)[C@@H](C)CC[C@H]3[C@H](C)[C@@]21O,44
28,CC(C)=CC(=O)[C@@]1(O)[C@@H](C)[C@@H]2CC[C@H](C)[C@H]2C(=O)[C@]1(O)[C@H](C)CC[C@]1(O)OC(=O)C=C1C,41.3
29,CC(C)=C[C@H]1O[C@@](C)(CC[C@@H]2OC(=O)C=C2C)[C@@H]2C(=O)[C@@]3(OO)[C@@H](C)CC[C@H]3[C@H](C)[C@@]21O,29.9
30,CCC(=O)CC[C@H](C)[C@@]1(O)C(=O)[C@H]2[C@@H](CC[C@@H]2C)[C@H](C)[C@]1(O)C(=O)C=C(C)C,32.6

# Test system: T-cell
# Assay: Inhibition of proliferation of C57BL/6 female mouse T-cells isolated from spleen at 20 uM relative to control
# Type: functional
# Conditions: not given
row,Molecule,inhibition [%]
1,Norleucosceptroid K,12.1

# Same assay, conditions: C57BL/6, T-cell
row,Molecule,inhibition at 20 µM [%]
1,CC(C)=CC1O[C@@]2(C)CC[C@]3(OC(=O)C=C3C)O[C@]13[C@H]2C(=O)[C@@]1(O)[C@@H](C)CC[C@H]1[C@@H]3C (some centres not stated),< 10
2,CC(C)=CC(=O)[C@@]1(O)[C@@H](C)[C@@H]2CC[C@H](C)[C@H]2C(=O)[C@@]12OC(=O)C[C@@H]2C,< 10
3,CC(C)=C[C@H]1O[C@@](C)(CC[C@@H]2OC(=O)C=C2C)C2=C1[C@@H](C)[C@@H]1CC[C@H](C)[C@@H]1C2=O,< 10
4,CC(C)=C[C@H]1O[C@@](C)(C/C=C2\NC(=O)C=C2C)[C@@H]2C(=O)[C@H]3[C@@H](CC[C@@H]3C)[C@H](C)[C@@]21O,< 10
5,CC(C)=C[C@H]1O[C@@]2(C)C[C@H](c3occc3C)O[C@]13[C@H]2C(=O)[C@H]1[C@@H](CC[C@@H]1C)[C@@H]3C,13.6
6,CC(C)=C[C@H]1O[C@@](C)(CC[C@@]2(O)OC(=O)C=C2C)[C@@H]2C(=O)[C@@H]3[C@@H](CC[C@@H]3C)[C@H](C)[C@@]21O,15.3
7,CC(C)=CC(=O)[C@@]1(O)[C@@H](C)[C@@H]2CC[C@H](C)[C@H]2C(=O)[C@]1(O)[C@@H](C)CCc1occc1C,< 10
8,CC(C)=C[C@H]1O[C@@](C)(CC[C@@]2(O)OC(=O)C=C2C)C2=C1[C@@H](C)[C@@H]1CC[C@H](C)[C@@]1(O)C2=O,< 10
9,CC(C)=C[C@H]1O[C@@]2(C)C[C@H]([C@H]3NC(=O)C=C3C)O[C@]13[C@H]2C(=O)[C@H]1[C@@H](CC[C@@H]1C)[C@@H]3C,13.1
10,CC(C)=C[C@H]1O[C@@](C)(CCO)C2=C1[C@@H](C)[C@@H]1CC[C@H](C)[C@]1(O)C2=O,< 10
11,CC(C)=C[C@H]1O[C@@](C)(CC[C@@H]2OC(=O)C=C2C)C2=C1[C@@H](C)[C@@H]1CC[C@H](C)[C@]1(O)C2=O,< 10
12,CC(C)=CC(=O)[C@@]1(O)[C@@H](C)[C@@H]2CC[C@H](C)[C@H]2C(=O)[C@@]12O[C@@H](c1occc1C)C[C@@H]2C,< 10
13,CC(C)=C[C@H]1O[C@@](C)(CCC(=O)O)C2=C1[C@@H](C)[C@@H]1CC[C@H](C)[C@]1(O)C2=O,20.2
14,CC(C)=CC(=O)[C@]12O[C@]3(CC[C@H](C)[C@@]1(O)C(=O)[C@H]1[C@@H](CC[C@@H]1C)[C@@H]2C)OC(=O)C=C3C,< 10
15,CC(C)=C[C@H]1O[C@@](C)(C/C=C2\OC(=O)C=C2C)[C@@H]2C(=O)[C@]3(O)[C@@H](C)CC[C@H]3[C@H](C)[C@@]21O,< 10
16,CC(C)=C[C@H]1O[C@@](C)(C/C=C2/OC(=O)C=C2C)C2=C1[C@@H](C)[C@@H]1CC[C@H](C)[C@@]1(O)C2=O,< 10
17,CC(C)=CC(=O)[C@]12O[C@@H]([C@]3(O)OC(=O)C=C3C)C[C@H](C)[C@@]1(O)C(=O)[C@H]1[C@@H](CC[C@@H]1C)[C@@H]2C,< 10
18,CC(C)=CC(=O)[C@@]1(O)[C@@H](C)[C@@H]2CC[C@H](C)[C@H]2C(=O)[C@]1(O)[C@@H](C)CC[C@]1(O)OC(=O)C=C1C,< 10
19,CC(C)=CC(=O)[C@@]1(O)[C@@H](C)[C@@H]2CC[C@H](C)[C@H]2C(=O)[C@]1(O)[C@@H](C)CC[C@@H]1OC(=O)C=C1C,< 10
20,CC(C)=C[C@H]1O[C@@]2(C)C[C@H]([C@]3(O)OC(=O)C=C3C)O[C@]13[C@H]2C(=O)[C@@]1(O)[C@@H](C)CC[C@H]1[C@@H]3C,26
21,CC(C)=C[C@H]1O[C@@](C)(CC[C@@H]2OC(=O)C=C2C)[C@@H]2C(=O)[C@@]3(O)[C@@H](C)CC[C@H]3[C@H](C)[C@@]21O,13.2
22,CC(C)=C[C@H]1O[C@@](C)(CCc2occc2C)[C@@H]2C(=O)[C@@]3(O)[C@@H](C)CC[C@H]3[C@H](C)[C@@]21O,16.8
23,CC(C)=C[C@H]1O[C@@](C)(CCC(=O)O)C2=C1[C@@H](C)[C@@H]1CC[C@H](C)[C@H]1C2=O,18.2
24,CC(C)=C[C@H]1O[C@@](C)(CC(=O)O)C2=C1[C@@H](C)[C@@H]1CC[C@H](C)[C@H]1C2=O,25
25,CC(C)=C[C@H]1O[C@@](C)(CC[C@@]2(O)OC(=O)C=C2C)C2=C1[C@@H](C)[C@@H]1CC[C@H](C)[C@]1(O)C2=O,< 10
26,CC(C)=C[C@H]1O[C@@](C)(CC[C@@H]2OC(=O)C=C2C)[C@@H]2C(=O)[C@@H]3[C@@H](CC[C@@H]3C)[C@H](C)[C@@]21O,25.4
27,CC(C)=C[C@H]1O[C@@](C)(C/C=C2\NC(=O)C=C2C)[C@@H]2C(=O)[C@@]3(O)[C@@H](C)CC[C@H]3[C@H](C)[C@@]21O,< 10
28,CC(C)=CC(=O)[C@@]1(O)[C@@H](C)[C@@H]2CC[C@H](C)[C@H]2C(=O)[C@]1(O)[C@H](C)CC[C@]1(O)OC(=O)C=C1C,11.7
29,CC(C)=C[C@H]1O[C@@](C)(CC[C@@H]2OC(=O)C=C2C)[C@@H]2C(=O)[C@@]3(OO)[C@@H](C)CC[C@H]3[C@H](C)[C@@]21O,11.8
30,CCC(=O)CC[C@H](C)[C@@]1(O)C(=O)[C@H]2[C@@H](CC[C@@H]2C)[C@H](C)[C@]1(O)C(=O)C=C(C)C,< 10
